From patent US10294202B2, “Pyrrolidinones as herbicides” (FMC Corporation, priority 2013, dated 2019)

Experiments:
Test in all cases: Test C pre-/postemergence herbicide test
bermudagrass = type: in vivo, Cynodon dactylon
Text: (§1) Seeds of plant species selected from blackgrass (Alopecurus myosuroides), ryegrass, Italian (Italian ryegrass, Lolium multiflorum), wheat (winter wheat, Triticum aestivum), galium (catchweed bedstraw, Galium aparine), corn (Zea mays), crabgrass, large (large crabgrass, Digitaria sanguinalis), foxtail, giant (giant foxtail, Setaria faberii), johnsongrass (Sorghum halepense), lambsquarters (Chenopodium album), morningglory (Ipomoea coccinea), nutsedge, yellow (yellow nutsedge, Cyperus esculentus), pigweed (Amaranthus retroflexus), ragweed (common ragweed, Ambrosia elatior), soybean (Glycine max), barnyardgrass (Echinochloa crus-galli), oilseed rape (Brassica napus), waterhemp (common waterhemp, Amaranthus rudis), kochia (Kochia scoparia), oat, wild (wild oat, Avena fatua), surinam grass (Brachiaria decumbens), foxtail, green (green foxtail, Setaria viridis), goosegrass (Eleusine indica), bromegrass, downy (downy bromegrass, Bromus tectorum), nightshade (eastern black nightshade, Solanum ptycanthum), cocklebur (common cocklebur, Xanthium strumarium), cupgrass, woolly (woolly cupgrass, Eriochloa villosa), bermudagrass (Cynodon dactylon), sunflower, (common oilseed sunflower, Helianthus annuus), Russian thistle (Salsola kali) and velvetleaf (Abutilon theophrasti) were planted into a blend of loam soil and sand and treated preemergence with test chemicals formulated in a non-phytotoxic solvent mixture which included a surfactant. At the same time, plants selected from these crop and weed species and also barley (winter barley, Hordeum vulgare), […]), chickweed (common chickweed, Stellaria media), deadnettle (henbit deadnettle, Lamium amplexicaule), and canarygrass (littleseed canarygrass, Phalaris minor) were planted in pots containing Redi-Earth® planting medium (Scotts Company, 14111 Scottslawn Road, Marysville, Ohio 43041) comprising spaghnum peat moss, vermiculite, wetting agent and starter nutrients and treated with postemergence applications of test chemicals formulated in the same manner. Plants ranged in height from 2 to 18 cm (1- to 4-leaf stage) for postemergence treatments. Treated plants and controls were maintained in a greenhouse for 13 to 15 days, after which time all species were compared to controls and visually evaluated. Plant response ratings, summarized in Table C, are based on a scale of 0 to 100 where 0 is no effect and 100 is complete control. A dash (-) response means no test result.

cupgrass, woolly = type: in vivo, Eriochloa villosa
Text: as §1

sunflower = type: in vivo, Helianthus annuus; conditions: Preemergence
Text: as §1

surinam grass = type: in vivo, Brachiaria decumbens
Text: as §1

foxtail, green = type: in vivo, Setaria viridis
Text: as §1

cocklebur = type: in vivo, Xanthium strumarium
Text: as §1

bromegrass, downy = type: in vivo, Bromus tectorum
Text: as §1

goosegrass = type: in vivo, Eleusine indica
Text: as §1

nightshade = type: in vivo, Solanum ptycanthum; conditions: Preemergence
Text: as §1

Russian thistle = type: in vivo, Salsola kali; conditions: Preemergence
Text: as §1

[1] = Preemergence, 31 g ai/ha, scale 0 to 100 (0 no effect, 100 complete control)
[2] = Preemergence, 62 g ai/ha, scale 0 to 100
[3] = Preemergence, 125 g ai/ha, scale 0 to 100 (0 no effect, 100 complete control)
[4] = Preemergence, 250 g ai/ha, scale 0 to 100 (0 no effect, 100 complete control)
[5] = 125 g ai/ha, scale 0 to 100 (0 no effect, 100 complete control)
[6] = Postemergence, 31 g ai/ha, scale 0 (no effect) to 100 (complete control)
[7] = Postemergence, 62 g ai/ha, scale 0 to 100 (0 no effect, 100 complete control)
[8] = Postemergence, 125 g ai/ha, scale 0 to 100 (0 no effect, 100 complete control)
[9] = Postemergence, 250 g ai/ha, scale 0 to 100 (0 no effect, 100 complete control)

O=C1NCC(c2cc(F)c(F)c(F)c2)C1C(=O)Nc1ccccc1C(F)(F)F (racemic) [Compound 33]
100: Plant response rating, Foxtail, Green (foxtail, green; [3]) | Plant response rating, Foxtail, Green (foxtail, green; [4])
40: Plant response rating, Goosegrass (goosegrass; [3])
80: Plant response rating, Surinam Grass (surinam grass; [2])
10: Plant response rating Sunflower (sunflower; 62 g ai/ha, scale 0 to 100) | Plant response rating, Cocklebur (cocklebur; [3]) | Plant response rating, Cocklebur (cocklebur; [4])
85: Plant response rating, Cupgrass, Woolly (cupgrass, woolly; [2])
98: Plant response rating, Bermudagrass (bermudagrass; [4]) | Plant response rating, Foxtail, Green (foxtail, green; [2])
70: Plant response rating, Bermudagrass (bermudagrass; [3])
5: Goosegrass plant response rating (goosegrass; [1]) | Plant response rating, Goosegrass (goosegrass; [2])
90: Plant response rating, Cupgrass, Woolly (cupgrass, woolly; [3]) | Plant response rating, Cupgrass, Woolly (cupgrass, woolly; [4])
55: Plant response rating, Bromegrass, Downy (bromegrass, downy; [4])
95: Plant response rating, Surinam Grass (surinam grass; [3]) | Foxtail, Green plant response rating (foxtail, green; [1])
60: Cupgrass, Woolly plant response rating (cupgrass, woolly; [1])
0: Bermudagrass plant response rating (bermudagrass; [1]) | Plant response rating, Bermudagrass (bermudagrass; [2]) | Cocklebur plant response rating (cocklebur; [1]) | Bromegrass, Downy plant response rating (bromegrass, downy; [1]) | Plant response rating, Bromegrass, Downy (bromegrass, downy; [2]) | Plant response rating, Bromegrass, Downy (bromegrass, downy; [3]) | Plant response rating, Nightshade (nightshade; 62 g ai/ha, scale 0 to 100) | Plant response rating, Nightshade (nightshade; [5])

O=C1NCC(c2cc(F)c(F)c(F)c2)C1C(=O)Nc1ccccc1F (racemic) [Compound 34]
45: Plant response rating, Bermudagrass (bermudagrass; [4])
10: Plant response rating, Bromegrass, Downy (bromegrass, downy; [3]) | Plant response rating, Goosegrass (goosegrass; [6]) | Plant response rating, Goosegrass (goosegrass; [3])
60: Plant response rating, Surinam Grass (surinam grass; [9]) | Plant response rating, Foxtail, Green (foxtail, green; [7]) | Plant response rating, Foxtail, Green (foxtail, green; [8]) | Plant response rating, Foxtail, Green (foxtail, green; [9])
100: Plant response rating, Surinam Grass (surinam grass; [3]) | Plant response rating, Foxtail, Green (foxtail, green; [4])
95: Plant response rating, Cupgrass, Woolly (cupgrass, woolly; [3]) | Plant response rating, Cupgrass, Woolly (cupgrass, woolly; [4]) | Plant response rating, Surinam Grass (surinam grass; [2])
55: Plant response rating, Surinam Grass (surinam grass; [8])
5: Plant response rating, Cocklebur (cocklebur; [7]) | Plant response rating, Cocklebur (cocklebur; [8]) | Plant response rating, Goosegrass (goosegrass; [2])
15: Plant response rating, Goosegrass (goosegrass; [7]) | Plant response rating, Goosegrass (goosegrass; [8])
30: Plant response rating, Cupgrass, Woolly (cupgrass, woolly; [9]) | Plant response rating, Bromegrass, Downy (bromegrass, downy; [4])
25: Plant response rating, Cocklebur (cocklebur; [9]) | Plant response rating, Goosegrass (goosegrass; [9])
98: Foxtail, Green plant response rating (foxtail, green; [1]) | Plant response rating, Foxtail, Green (foxtail, green; [2]) | Plant response rating, Foxtail, Green (foxtail, green; [3])
0: Plant response rating, Bermudagrass (bermudagrass; [6]) | Plant response rating, Bermudagrass (bermudagrass; [7]) | Plant response rating, Bermudagrass (bermudagrass; [8]) | Plant response rating, Bermudagrass (bermudagrass; [9]) | Bermudagrass plant response rating (bermudagrass; [1]) | Plant response rating, Bermudagrass (bermudagrass; [2]) | Plant response rating, Bermudagrass (bermudagrass; [3]) | Plant response rating, Cupgrass, Woolly (cupgrass, woolly; [6]) | Plant response rating, Cupgrass, Woolly (cupgrass, woolly; [7]) | Plant response rating, Cupgrass, Woolly (cupgrass, woolly; [8]) | Plant response rating Sunflower (sunflower; 62 g ai/ha, scale 0 to 100) | Plant response rating Sunflower (sunflower; [5]) | Plant response rating, Surinam Grass (surinam grass; [6]) | Plant response rating, Surinam Grass (surinam grass; [7]) | Plant response rating, Foxtail, Green (foxtail, green; [6]) | Plant response rating, Cocklebur (cocklebur; [6]) | Cocklebur plant response rating (cocklebur; [1]) | Plant response rating, Cocklebur (cocklebur; [2]) | Plant response rating, Cocklebur (cocklebur; [3]) | Plant response rating, Cocklebur (cocklebur; [4]) | Plant response rating, Bromegrass, Downy (bromegrass, downy; [6]) | Plant response rating, Bromegrass, Downy (bromegrass, downy; [7]) | Plant response rating, Bromegrass, Downy (bromegrass, downy; [8]) | Plant response rating, Bromegrass, Downy (bromegrass, downy; [9]) | Bromegrass, Downy plant response rating (bromegrass, downy; [1]) | Plant response rating, Bromegrass, Downy (bromegrass, downy; [2]) | Plant response rating, Russian Thistle (Russian thistle; 62 g ai/ha, scale 0 to 100) | Plant response rating, Russian Thistle (Russian thistle; [5]) | Goosegrass plant response rating (goosegrass; [1]) | Plant response rating, Nightshade (nightshade; 62 g ai/ha, scale 0 to 100) | Plant response rating, Nightshade (nightshade; [5])
85: Plant response rating, Cupgrass, Woolly (cupgrass, woolly; [2])
50: Cupgrass, Woolly plant response rating (cupgrass, woolly; [1])
